Test results from patent US20240009359A1, “DRUG ELUTING ELASTIC BANDS AND LIGATION” (MEMORIAL SLOAN KETTERING CANCER CENTER, priority 2020, published 2024).
“Also recorded” adds a separate entry of the source.

Experiments:
[1] = Drug release from rubber bands in physiological medium; type: physicochemical; details: pH 7.9, 37 degrees Celsius; for Drug release from rubber band: released drug measured over time
Protocol: To see whether the lidocaine loaded within the rubber is dispersed evenly, a larger lidocaine loaded rubber slab was prepared and cut into pieces from either the middle or the edges of the slab. The amount of drug released was measured (see FIG. 9K) and normalized to the amount of rubber (see FIG. 9L).

MCF-7 cells = assay: Activity of salicylic acid released from rubber on MCF-7 cell viability; type: cell-based; details: drug loaded in rubber and released into the media in presence of MCF-7 cells
Description: In order to verify that the released drugs are still active after elution from the rubber, salicylic acid was loaded and released into the media in the presence of MCF-7 cells.

HL-1 cardiomyocytes = assay: Calcium imaging of HL-1 cardiomyocytes exposed to lidocaine released from rubber bands; type: cell-based; details: HL-1 cardiomyocytes before and after exposure to released lidocaine
Protocol: In accordance with various potential embodiments, and with reference to FIGS. 11A-11C, the released lidocaine was tested on cardiomyocytes. Lidocaine is known to have a cardiotoxic effect in high concentrations, and accordingly, HL-1 cardiomyocytes beating on a plate were imaged using calcium imaging before and after exposure to the released lidocaine (FIG. 11A).

| SMILES | Drug release from rubber band [1] | further results |
| --- | --- | --- |
| Cc1cc(C2CCCCC2)n(O)c(=O)c1 [ciclopirox olamine] | released |  |
| CCCCN1CCCCC1C(=O)Nc1c(C)cccc1C (centres unmarked) [bupivacaine] | released |  |
| CCN(CC)CC(=O)Nc1c(C)cccc1C [lidocaine] |  | Time at which release peaked ([1]; different loading quantities): ~5 days; Calcium activity (calcium waves, fluorescence pattern) (HL-1 cardiomyocytes): inhibit spontaneous calcium waves; also recorded: much lower level of calcium activity; Rate of contraction (HL-1 cardiomyocytes): rate of contraction dropped |
| CN(C)CCOC(c1ccccc1)c1ccccc1.Cn1c(=O)c2[nH]c(Cl)nc2n(C)c1=O [dimenhydrinate] | released |  |

Now from value to molecule, other results behind:

| Drug release from rubber band [1] | SMILES | further results |
| --- | --- | --- |
| released | OB1OCc2cc(F)ccc21 [tavabarole] |  |
| released | O=C(O)c1ccccc1O [salicylic acid] | Cell viability compared to untreated cells (MCF-7 cells): effective in reducing cell viability |
| released | CN1C(C(=O)Nc2ccccn2)=C(O)c2ccccc2S1(=O)=O [piroxicam] |  |
| released | COC1=CC(=O)C[C@@H](C)[C@]12Oc1c(Cl)c(OC)cc(OC)c1C2=O [griseofulvin] |  |
